In ChEMBL document CHEMBL4706694, “Novel bicyclic pyrazoles as potent ALK2 (R206H) inhibitors for the treatment of fibrodysplasia ossificans progressiva” (Bioorg Med Chem Lett, 2021):

Tests used:
[1] = Inhibition of ALK2 R206H in mouse C2C12 cells assessed as reduction in BMP-induced ALP activity using p-nitrophenyl phosphate as substrate
[2] = Metabolic stability in rat liver microsomes assessed as parent compound remaining incubated for 60 mins in presence of NADPH by LC-MS/MS analysis; settings: read-out: Stabilty
[3] = Metabolic stability in human liver microsomes assessed as parent compound remaining incubated for 60 mins in presence of NADPH by LC-MS/MS analysis; format: ADME, Microsome; settings: read-out: Stabilty
[4] = target: MDR1 (ABCB1, P-glycoprotein) (Homo sapiens, UniProt P08183); experiment: Substrate activity at human MDR1 expressed in MDCK-II cells assessed as apparent permeability across apical to basolateral membrane at 10 uM by LC-MS/MS analysis; format: ADME, cell-based
hERG (KCNH2) = hERG (KCNH2) (Homo sapiens, UniProt Q12809); experiment: Inhibition of human ERG at 10 uM by automated patch method relative to control
Sequence of hERG (KCNH2) (Q12809 whole entry): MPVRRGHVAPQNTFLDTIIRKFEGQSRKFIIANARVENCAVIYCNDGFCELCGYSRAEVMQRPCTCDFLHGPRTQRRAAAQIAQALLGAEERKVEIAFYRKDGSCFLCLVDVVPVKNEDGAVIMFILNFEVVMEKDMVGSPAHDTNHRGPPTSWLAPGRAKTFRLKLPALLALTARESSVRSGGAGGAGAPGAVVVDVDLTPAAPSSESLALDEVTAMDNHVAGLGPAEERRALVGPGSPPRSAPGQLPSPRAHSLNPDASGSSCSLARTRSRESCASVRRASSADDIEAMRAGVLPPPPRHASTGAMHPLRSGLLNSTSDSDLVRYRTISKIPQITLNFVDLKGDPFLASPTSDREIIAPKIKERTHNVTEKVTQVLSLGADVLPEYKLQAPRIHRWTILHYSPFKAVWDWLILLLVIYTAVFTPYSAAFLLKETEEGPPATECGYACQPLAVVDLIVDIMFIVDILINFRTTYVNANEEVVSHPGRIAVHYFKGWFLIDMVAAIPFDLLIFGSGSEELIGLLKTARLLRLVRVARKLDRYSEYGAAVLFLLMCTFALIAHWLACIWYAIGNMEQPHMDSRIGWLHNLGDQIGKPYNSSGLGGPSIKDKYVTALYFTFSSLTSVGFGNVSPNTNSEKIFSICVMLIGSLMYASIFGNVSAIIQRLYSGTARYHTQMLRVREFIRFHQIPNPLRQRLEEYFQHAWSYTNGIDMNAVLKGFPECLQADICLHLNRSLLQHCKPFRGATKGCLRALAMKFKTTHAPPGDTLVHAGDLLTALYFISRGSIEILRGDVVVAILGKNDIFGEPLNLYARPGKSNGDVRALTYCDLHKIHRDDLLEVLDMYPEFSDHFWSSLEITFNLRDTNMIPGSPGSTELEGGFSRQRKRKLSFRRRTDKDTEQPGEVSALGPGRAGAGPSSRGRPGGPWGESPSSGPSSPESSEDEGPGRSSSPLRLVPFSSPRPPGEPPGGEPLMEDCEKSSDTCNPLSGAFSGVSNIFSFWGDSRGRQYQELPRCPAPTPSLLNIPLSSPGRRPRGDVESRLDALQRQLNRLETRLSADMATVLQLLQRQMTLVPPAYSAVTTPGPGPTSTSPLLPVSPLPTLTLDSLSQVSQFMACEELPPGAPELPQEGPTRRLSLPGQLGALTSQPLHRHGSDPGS

Sequence of MDR1 (ABCB1, P-glycoprotein) (P08183 whole entry): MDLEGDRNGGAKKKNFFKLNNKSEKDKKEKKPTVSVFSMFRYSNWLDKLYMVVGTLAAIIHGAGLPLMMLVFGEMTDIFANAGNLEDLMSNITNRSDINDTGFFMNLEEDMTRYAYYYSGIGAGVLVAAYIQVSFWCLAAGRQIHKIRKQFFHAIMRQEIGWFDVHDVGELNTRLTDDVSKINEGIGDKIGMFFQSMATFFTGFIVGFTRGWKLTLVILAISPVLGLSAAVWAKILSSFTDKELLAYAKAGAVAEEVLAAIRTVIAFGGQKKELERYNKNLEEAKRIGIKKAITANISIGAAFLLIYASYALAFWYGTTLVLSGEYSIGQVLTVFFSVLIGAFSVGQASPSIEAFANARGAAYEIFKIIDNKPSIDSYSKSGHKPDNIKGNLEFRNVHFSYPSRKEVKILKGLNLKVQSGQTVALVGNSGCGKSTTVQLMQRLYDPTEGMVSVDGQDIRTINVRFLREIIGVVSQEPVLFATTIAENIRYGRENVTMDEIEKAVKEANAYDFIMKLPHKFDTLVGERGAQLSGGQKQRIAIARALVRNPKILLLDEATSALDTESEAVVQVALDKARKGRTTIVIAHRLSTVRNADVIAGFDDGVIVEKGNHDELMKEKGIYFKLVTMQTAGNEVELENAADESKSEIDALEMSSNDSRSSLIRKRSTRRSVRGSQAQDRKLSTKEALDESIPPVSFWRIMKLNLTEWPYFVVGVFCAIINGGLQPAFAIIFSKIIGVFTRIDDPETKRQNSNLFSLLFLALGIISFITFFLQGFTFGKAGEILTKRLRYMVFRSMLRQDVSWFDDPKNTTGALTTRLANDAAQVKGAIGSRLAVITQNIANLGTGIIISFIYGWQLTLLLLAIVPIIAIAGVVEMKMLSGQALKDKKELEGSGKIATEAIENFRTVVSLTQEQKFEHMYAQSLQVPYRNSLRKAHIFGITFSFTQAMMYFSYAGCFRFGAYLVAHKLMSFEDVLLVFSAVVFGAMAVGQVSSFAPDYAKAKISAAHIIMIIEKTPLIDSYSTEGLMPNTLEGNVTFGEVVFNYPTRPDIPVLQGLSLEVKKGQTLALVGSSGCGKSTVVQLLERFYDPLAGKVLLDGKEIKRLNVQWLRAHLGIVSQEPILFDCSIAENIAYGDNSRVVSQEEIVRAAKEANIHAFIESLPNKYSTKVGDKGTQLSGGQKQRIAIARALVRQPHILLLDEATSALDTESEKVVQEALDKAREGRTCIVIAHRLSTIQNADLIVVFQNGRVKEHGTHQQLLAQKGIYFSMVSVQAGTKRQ

| Compound | IC50 [1] | remaining at 1 h [2] | remaining at 1 h [3] | Papp A→B at 10 µM [4] | inhibition at 10 µM (hERG (KCNH2)) |
| --- | --- | --- | --- | --- | --- |
| COc1ccc(Nc2nccc(-c3c[nH]nc3-c3cccnc3)n2)cc1 | > 0.1 µM | 2.1% | 14.8% | – | – |
| c1cncc(-c2nn3c(c2-c2ccnc(Nc4ccc(N5CCNCC5)cc4)n2)COCC3)c1 | – | – | – | 0.906 ×10⁻⁶ cm/s | – |
| COCCN1CCN(c2ccc(Nc3nccc(-c4c(-c5cccnc5)nn5c4COCC5)n3)cc2)CC1 | 0.0373 µM | 40.5% | 56% | 8.69 ×10⁻⁶ cm/s | 3.6% |
| CN1CCN(c2ccc(Nc3nccc(-c4c(-c5cccnc5)nn5c4COCC5)n3)cc2)CC1 | – | – | – | 4.37 ×10⁻⁶ cm/s | – |
